# Assay results as given in patent US10913757B2, “Hydroxycinnamic derivatives, methods and uses thereof” (UNIVERSIDADE DO PORTO, priority 2016, dated 2021).
# Experiments:
# [1] = system: rat liver mitochondria (RLM); experiment: Mitochondrial transmembrane electric potential (ΔΨ) of RLM, safranine fluorescence; format: biochemical
# Procedure: (§1) In an embodiment, and as an example, AntiOxCINs and MitoQ toxicity effects on the mitochondrial bioenergetics, namely on RLM ΔΨ and mitochondrial respiration parameters, were measured. The […] represents the main component of the electrochemical gradient generated by mitochondrial respiration and accounts for more than 90% of the total available energy. For mitochondrial respiration assays, glutamate/malate (for complex I) and succinate (for complex II) were used as substrates. In addition, the mitochondrial oxidative phosphorylation coupling index, known as respiratory control ratio (RCR, state 3/state 4 respiration) and ADP/O index (the coupling between ATP synthesis and oxygen consumption) were also calculated. AntiOxCINs and MitoQ were tested at antioxidant-relevant concentrations, with 10 μM being the highest concentration.
# (§2) In an embodiment, the evaluation of AntiOxCINs functional mitochondrial toxicity profile was performed in rat liver mitochondria (RLM). […] The protein concentration was determined by the biuret assay using BSA as a standard.
# Then, 1 μM FCCP was added at the end of all experiments to depolarize mitochondria. ΔΨ was calculated using a calibration curve obtained when RLM were incubated in a K^+-free reaction medium containing 200 mM sucrose, 1 mM NaH2PO4, 10 mM Tris (pH 7.4) and 10 μM EGTA, supplemented with 0.4 μg valinomicin. […] “Repolarization” corresponded to the recovery of membrane potential after the complete phosphorylation of ADP added. Lag phase reflected the time required to phosphorylate the added ADP. […] Data are means±SEM of five independent experiments.
# [2] = system: rat liver mitochondria (RLM); experiment: Mitochondrial respiration of isolated RLM (Clark-type oxygen electrode); format: biochemical
# Procedure: as §1, §2
# In an embodiment, the evaluation of AntiOxCINs effect on mitochondrial respiration was performed as follows: the respiration of isolated RLM was evaluated polarographically with a Clark-type oxygen electrode, connected to a suitable recorder in a 1 mL thermostated water-jacketed chamber with magnetic stirring, at 37° C.^1. […] Increasing concentrations of AntiOxCINs (2.5-10 μM) were added to the reaction medium containing respiratory substrates glutamate/malate (10 mM and 5 mM respectively) or succinate (5 mM) and RLM (1 mg) and allowed to incubate for a 5 min period prior to the assay. State 2 was considered as the respiration during the 5 min incubation time with AntiOxCINs. […] State 4 was determined after ADP phosphorylation finished. Subsequent addition of oligomycin (2 μg/ml) inhibited ATP-synthase and originated the oligomycin-inhibition respiration state. Finally, 1 μM FCCP was added to induce uncoupled respiration.
# [3] = Lipophilic properties by electrochemistry at ITIES (transfer potential); format: physicochemical; details: aqueous phase to 1,6-dichlorohexane, DPV, C=0.32 mM
# Procedure: In an embodiment, AntiOxCINs lipophilic properties were evaluated at physiological pH by electrochemistry. The used technique is often used to mimic the transfer of ionic drugs through biological membranes as the process occurs at the interface between two immiscible electrolyte solutions (ITIES). The transfer potential (Etr) at which the ionic drug, initially present in the aqueous phase (C=0.32 mM), is transferred to the 1,6-dichlorohexane (DCH) phase is measured by differential pulse voltammetry (DPV). In the ITIES model, the transfer potential (Etr) becomes less positive with the increasing of the drug lipophilic character.
# In an embodiment, the electrochemical analytical data was obtained using a computer controlled potentiostat Autolab PGSTAT302N (Metrohm Autolab, Utrecht, Netherlands). Generally, cyclic voltammetry (CV) data was acquired at a scan rate of 50 mVs^−1. Differential pulse voltammetry (DPV) results were acquired at a step potential of 4 mV, pulse amplitude of 50 mV and scan rate of 8 mVs^−1. The electrochemical signals were monitored by the General Purpose Electrochemical System (GPES) version 4.9, software package. All electrochemical experiments were performed at room temperature in an electrochemical cell that was placed in a Faraday cage in order to minimize the contribution of background noise to the analytical signal.
# In an embodiment, the process of evaluation of AntiOxCINs redox properties was conducted as follows: stock solutions of each compound (10 mM) were prepared by dissolving the appropriate amount in ethanol. The voltammetric working solutions were prepared in the electrochemical cell, at a final concentration of 0.1 mM. The […] supporting electrolyte was prepared by diluting […] to 100 mL. Voltammetric data was acquired in a three-electrode system consisting of a glassy carbon electrode (GCE, d=2 mm) as working electrode, a counter electrode of platinum wire and a saturated Ag/AgCl reference electrode. In an embodiment, the evaluation of AntiOxCINs lipophilic properties was performed as follows: the electrochemical cell was a four-electrode system with arrays of micro liquid-liquid interfaces (μlTIES) containing two Ag/AgCl reference electrodes and two counter electrodes of Pt, one in each phase. The microporous membrane was sealed with a fluorosilicone sealant (Dow Corning 730) onto a glass cylinder which was filled with 4.0 mL of the aqueous phase, where the aliquots of AntiOxCINs solutions were added. The membrane was then immersed into the organic phase contained in the cell. The organic phase reference solution (a 2 mM BTPPACI+2 mM NaCl aqueous solution) was mechanically stabilized The aqueous supporting electrolyte solution was a Tris-HCl buffer 10 mM pH 7.0.
structure (smiles),measurement,setting,value
"CS(=O)(=O)[O-].O=C(/C=C/c1cc(O)c(O)c(O)c1)NCCCCCC[P+](c1ccccc1)(c1ccccc1)c1ccccc1 [AntiOxCIN4, (E)-(6-(3-(3,4,5-trihydroxyphenyl)prop-2-enamido)hexyl)triphenylphosphonium methanesulfonate]",ADP-induced depolarization (ΔΨ in - mV),"[1]; glutamate/malate, 2.5 μM",188.5 ± 9.6 mV
same,Lag Phase,"[1]; glutamate/malate, 2.5 μM",84.7 ± 7.0 s
same,Maximum potential (ΔΨ in - mV),"[1]; glutamate/malate, 2.5 μM",214.6 ± 10.9 mV
same,Repolarization Potential (ΔΨ in - mV),"[1]; glutamate/malate, 2.5 μM",211.8 ± 10.1 mV
same,ADP-induced depolarization (ΔΨ in - mV),"[1]; glutamate/malate, 5 μM",193.8 ± 11.8 mV
same,Lag Phase,"[1]; glutamate/malate, 5 μM",81.7 ± 6.7 s
same,Maximum potential (ΔΨ in - mV),"[1]; glutamate/malate, 5 μM",216.4 ± 13.1 mV
same,Repolarization Potential (ΔΨ in - mV),"[1]; glutamate/malate, 5 μM",216.1 ± 12.7 mV
same,ADP-induced depolarization (ΔΨ in - mV),"[1]; glutamate/malate, 10 μM",192.7 ± 14.4 mV
same,Lag Phase,"[1]; glutamate/malate, 10 μM",65.7 ± 15.1 s
same,Maximum potential (ΔΨ in - mV),"[1]; glutamate/malate, 10 μM",216.8 ± 15.7 mV
same,Repolarization Potential (ΔΨ in - mV),"[1]; glutamate/malate, 10 μM",207.7 ± 15.6 mV
same,ADP-induced depolarization (ΔΨ in - mV),"[1]; succinate, 2.5 μM",171.2 ± 3.7 mV
same,Lag Phase,"[1]; succinate, 2.5 μM",95.6 ± 7.5 s
same,Maximum potential (ΔΨ in - mV),"[1]; succinate, 2.5 μM",192.0 ± 4.0 mV
same,Repolarization Potential (ΔΨ in - mV),"[1]; succinate, 2.5 μM",192.7 ± 5.4 mV
same,ADP-induced depolarization (ΔΨ in - mV),"[1]; succinate, 5 μM",176.2 ± 5.0 mV
same,Lag Phase,"[1]; succinate, 5 μM",97.8 ± 18.8 s
same,Maximum potential (ΔΨ in - mV),"[1]; succinate, 5 μM",197.6 ± 6.1 mV
same,Repolarization Potential (ΔΨ in - mV),"[1]; succinate, 5 μM",195.4 ± 8.2 mV
same,ADP-induced depolarization (ΔΨ in - mV),"[1]; succinate, 10 μM",170.3 ± 5.2 mV
same,Lag Phase,"[1]; succinate, 10 μM",101.4 ± 23.75 s
same,Maximum potential (ΔΨ in - mV),"[1]; succinate, 10 μM",187.4 ± 8.5 mV
same,Repolarization Potential (ΔΨ in - mV),"[1]; succinate, 10 μM",183.5 ± 10.5 mV
same,effect on state 3 respiration,"[2]; all tested concentrations (2.5-10 μM), FIG. 6B-H",decrease
same,ADP/O,"[2]; glutamate/malate, 2.5 μM",2.4 ± 0.1
same,"RCR (respiratory control ratio, state 3/state 4)","[2]; glutamate/malate, 2.5 μM",5.3 ± 0.8
same,ADP/O,"[2]; glutamate/malate, 5 μM",2.2 ± 0.1
same,"RCR (respiratory control ratio, state 3/state 4)","[2]; glutamate/malate, 5 μM",4.3 ± 0.7
same,ADP/O,"[2]; glutamate/malate, 10 μM",2.2 ± 0.1
same,"RCR (respiratory control ratio, state 3/state 4)","[2]; glutamate/malate, 10 μM",3.5 ± 0.5
same,ADP/O,"[2]; succinate, 2.5 μM",1.4 ± 0.1
same,"RCR (respiratory control ratio, state 3/state 4)","[2]; succinate, 2.5 μM",3.4 ± 0.3
same,ADP/O,"[2]; succinate, 5 μM",1.3 ± 0.1
same,"RCR (respiratory control ratio, state 3/state 4)","[2]; succinate, 5 μM",3.0 ± 0.34
same,ADP/O,"[2]; succinate, 10 μM",1.3 ± 0.02
same,"RCR (respiratory control ratio, state 3/state 4)","[2]; succinate, 10 μM",2.7 ± 0.4
same,Etr (transfer potential),[3],0.498 V
"O=C(O)/C=C/c1ccc(O)c(O)c1 [Caffeic acid, caffeic acid, reference compound]",toxicity toward the mitochondrial bioenergetic apparatus,[2]; RLM,low toxicity
